Here are results for three compounds from patent publication US9682985B2, “(Indazol-4-yl) hexahydropyrrolopyrrolones and methods of use” (AbbVie Inc., priority 2015, dated 2017).

For experiment [1], the system named is MIA-induced osteoarthritic pain in rats. Put plainly: Osteoarthritic (OA) pain induced by sodium monoiodoacetate (MIA), hind limb grip force. It is filed as in vivo. The following applies: rat MIA-OA, 20 days after MIA. The procedure: Osteoarthritic (OA) Pain Induced by Sodium Monoiodoacetate (MIA)
Pain behavior was assessed by measurement of hind limb grip force (GF) in adult osteoarthritic rats. Male Sprague Dawley rats, obtained from Charles River Laboratories, (Wilmington, Mass.), weighing 150-175 g, were injected in the unilateral knee join with a single intra-articular injection of sodium monoiodoacetate (MIA, 3 mg/rat). All rats were tested at 20 days following MIA injection. A behavioral measure of activity-induced pain was carried out. Measurements of the peak hind limb grip force were conducted by recording the maximum compressive force (CFmax), in grams of force, exerted on a hind limb strain gauge setup, in a commercially available grip force measurement system (Columbus Instruments, Columbus, Ohio).
During testing, each rat was gently restrained by grasping it around its rib cage and then allowed to grasp the wire mesh frame attached to the strain gauge. The experimenter then moved the animal in a rostral-to-caudal direction until the grip was broken. Each rat was sequentially tested twice at an approximately 2-3 minute interval to obtain a raw mean grip force (CFmax). This raw mean grip force data was in turn converted to a maximum hindlimb cumulative compressive force (CFmax), as the grams of force/kg of body weight, for each animal.
For evaluating the compound effects, the hind limb grip force was conducted 20 days following the intra-articular injection of MIA. A group of age-matched naïve (not injected with MIA) animals was added as a comparator to the drug-dosed groups. The vehicle control response for each group of MIA-treated animals was defined as the 0% response (0% effect), whereas the naïve control group was defined as the normal response and as 100% effect. The % effect for each dose group was expressed as % return of response to normalcy, compared to the naïve group. A percent maximal possible effect (% MPE) of testing compound was calculated according to the formula: (Treatment CFmax Vehicle CFmax)/Vehicle CFmax]×100). Higher % effect numbers indicate increased relief from the pain in the model, with 100% indicating a return to the level of response seen in normal (non-osteoarthritic) animals. All experiments evaluating drug effects in this model were conducted in a randomized blinded fashion.
The animals were housed in Association for Assessment and Accreditation of Laboratory Animal Care (AAALAC) approved facilities at AbbVie Inc. in a temperature-regulated environment under a controlled 12-hour light-dark cycle, with lights on at 6:00 a.m. Food and water were available ad libitum at all times except during testing. All testing was done following procedures outlined in protocols approved by AbbVie Inc.'s Institutional Animal Care and Use Committee.

Experiment [2] concerns SNL-induced neuropathic pain in rats. Kind of experiment: Rat spinal nerve ligation (SNL) model of neuropathic pain, paw withdrawal threshold. It is filed as in vivo. The following applies: SNL dose 100 mg/kg. The text has this:
Rat Spinal Nerve Ligation (SNL) Model of Neuropathic Pain.
A model of spinal nerve ligation-induced (SNL model) neuropathic pain as originally described by Kim and Chung (Kim, S. H. and J. M. Chung, 1992, Pain 50, 355) was used to test a compound of the present application. The male Sprague Dawley rats (Charles River Laboratories, Wilmington, Mass.), weighing 150-175 g at the time of surgery, were placed under isoflurane anesthesia and a 1.5 cm incision was made dorsal to the lumbosacral plexus. The paraspinal muscles (left side) were separated from the spinous processes, the left L5 and L6 spinal nerves isolated, and tightly ligated with 5-0 silk suture distal to the dorsal root ganglion. Care was taken to avoid ligating the L4 spinal nerve. Following spinal nerve ligation, a minimum of 7 days of recovery and no more than 3 weeks was allowed prior to the behavioral testing (mechanical sensitivity). Only rats with threshold scores ≦4.5 g were considered allodynic and utilized in pharmacological experiments.
Mechanical sensitivity was measured using calibrated von Frey filaments (Stoelting, Wood Dale, Ill.). Paw withdrawal threshold (PWT) was determined by using the Dixon's up-down method (Dixon, W. J., 1980, Ann. Rev. Pharmacol. Toxicol., 20, 441). Rats were placed into inverted individual plastic containers (20×12.5×20 cm) on top of a suspended wire mesh with a 1 cm^2 grid to provide access to the ventral side of the hind paws, and acclimated to the test chambers for 20 minutes. The von Frey filaments were presented perpendicularly to the plantar surface of the selected hind paw, and then held in this position for approximately 8 seconds with enough force to cause a slight bend in the filament. […] A 50% withdrawal threshold was determined using an up-down procedure (Dixon, 1980). A percent maximal possible effect (% MPE) of testing compound was calculated according to the formula: (Log [compound−treated threshold]−Log [vehicle−treated threshold])/(Log [maximum threshold]−Log [vehicle-treated threshold])×100%, where the maximum threshold was equal to 15 g. […]

The target of the next experiment is T1, recombinant human Nav1.7 (Homo sapiens, UniProt Q15858).
T1 construct: expressed in transfected cells; host or cells: HEK293
T1 sequence (Q15858 whole entry): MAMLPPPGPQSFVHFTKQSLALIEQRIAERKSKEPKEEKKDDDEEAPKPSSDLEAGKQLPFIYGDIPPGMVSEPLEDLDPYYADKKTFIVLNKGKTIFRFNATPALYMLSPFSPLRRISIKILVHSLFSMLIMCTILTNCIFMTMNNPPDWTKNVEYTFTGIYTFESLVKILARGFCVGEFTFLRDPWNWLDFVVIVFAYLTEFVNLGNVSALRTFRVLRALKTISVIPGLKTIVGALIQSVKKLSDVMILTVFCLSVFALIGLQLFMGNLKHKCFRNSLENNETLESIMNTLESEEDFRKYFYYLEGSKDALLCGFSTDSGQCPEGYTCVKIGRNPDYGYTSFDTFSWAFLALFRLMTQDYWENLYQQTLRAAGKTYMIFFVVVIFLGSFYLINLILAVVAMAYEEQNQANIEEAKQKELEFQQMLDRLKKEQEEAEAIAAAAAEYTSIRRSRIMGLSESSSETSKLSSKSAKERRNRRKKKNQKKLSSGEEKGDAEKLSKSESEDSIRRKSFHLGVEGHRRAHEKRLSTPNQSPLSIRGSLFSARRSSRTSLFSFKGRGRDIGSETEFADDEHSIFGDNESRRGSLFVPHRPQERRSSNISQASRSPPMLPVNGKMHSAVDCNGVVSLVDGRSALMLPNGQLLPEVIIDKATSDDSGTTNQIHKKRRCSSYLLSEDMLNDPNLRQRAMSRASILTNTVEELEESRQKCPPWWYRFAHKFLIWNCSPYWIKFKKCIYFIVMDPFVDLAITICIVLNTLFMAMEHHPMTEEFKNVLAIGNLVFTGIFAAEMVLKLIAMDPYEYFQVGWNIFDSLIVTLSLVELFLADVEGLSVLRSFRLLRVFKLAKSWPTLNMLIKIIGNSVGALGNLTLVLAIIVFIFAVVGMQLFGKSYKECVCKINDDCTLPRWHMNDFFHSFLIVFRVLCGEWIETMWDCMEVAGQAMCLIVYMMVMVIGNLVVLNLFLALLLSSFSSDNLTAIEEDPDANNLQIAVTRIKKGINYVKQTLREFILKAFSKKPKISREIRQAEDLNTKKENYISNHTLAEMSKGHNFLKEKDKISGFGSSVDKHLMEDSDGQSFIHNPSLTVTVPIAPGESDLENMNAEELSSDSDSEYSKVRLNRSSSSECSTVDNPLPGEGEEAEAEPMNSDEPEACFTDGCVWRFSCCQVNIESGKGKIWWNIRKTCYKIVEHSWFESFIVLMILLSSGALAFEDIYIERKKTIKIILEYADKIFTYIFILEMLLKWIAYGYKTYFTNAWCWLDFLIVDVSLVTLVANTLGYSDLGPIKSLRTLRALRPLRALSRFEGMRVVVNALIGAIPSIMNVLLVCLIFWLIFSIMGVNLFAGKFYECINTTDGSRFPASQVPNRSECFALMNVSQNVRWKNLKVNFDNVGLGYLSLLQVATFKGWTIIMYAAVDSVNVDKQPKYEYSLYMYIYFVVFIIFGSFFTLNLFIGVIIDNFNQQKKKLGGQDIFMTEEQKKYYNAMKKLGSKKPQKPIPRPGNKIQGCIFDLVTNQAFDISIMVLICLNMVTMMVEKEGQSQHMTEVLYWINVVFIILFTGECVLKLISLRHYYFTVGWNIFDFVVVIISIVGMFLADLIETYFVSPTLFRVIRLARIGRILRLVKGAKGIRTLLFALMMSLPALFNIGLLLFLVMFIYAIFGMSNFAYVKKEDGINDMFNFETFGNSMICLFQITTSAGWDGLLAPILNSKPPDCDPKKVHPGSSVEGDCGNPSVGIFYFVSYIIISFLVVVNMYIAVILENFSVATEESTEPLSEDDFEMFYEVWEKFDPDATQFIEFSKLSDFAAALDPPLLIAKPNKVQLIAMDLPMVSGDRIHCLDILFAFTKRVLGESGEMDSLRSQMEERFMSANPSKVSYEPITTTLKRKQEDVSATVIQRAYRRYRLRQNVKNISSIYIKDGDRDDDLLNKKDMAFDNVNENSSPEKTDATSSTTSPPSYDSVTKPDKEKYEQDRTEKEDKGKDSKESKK
Put plainly: FRET-based membrane potential assay, Nav1.7. It is filed as cell-based. The following applies: HEK293 cells expressing recombinant human Nav1.7; veratridine + scorpion venom depolarization.

The next experiment deals with T2, recombinant human Nav1.8 (Homo sapiens, UniProt Q9Y5Y9).
T2 construct: host or cells: HEK293
T2 sequence (Q9Y5Y9 whole entry): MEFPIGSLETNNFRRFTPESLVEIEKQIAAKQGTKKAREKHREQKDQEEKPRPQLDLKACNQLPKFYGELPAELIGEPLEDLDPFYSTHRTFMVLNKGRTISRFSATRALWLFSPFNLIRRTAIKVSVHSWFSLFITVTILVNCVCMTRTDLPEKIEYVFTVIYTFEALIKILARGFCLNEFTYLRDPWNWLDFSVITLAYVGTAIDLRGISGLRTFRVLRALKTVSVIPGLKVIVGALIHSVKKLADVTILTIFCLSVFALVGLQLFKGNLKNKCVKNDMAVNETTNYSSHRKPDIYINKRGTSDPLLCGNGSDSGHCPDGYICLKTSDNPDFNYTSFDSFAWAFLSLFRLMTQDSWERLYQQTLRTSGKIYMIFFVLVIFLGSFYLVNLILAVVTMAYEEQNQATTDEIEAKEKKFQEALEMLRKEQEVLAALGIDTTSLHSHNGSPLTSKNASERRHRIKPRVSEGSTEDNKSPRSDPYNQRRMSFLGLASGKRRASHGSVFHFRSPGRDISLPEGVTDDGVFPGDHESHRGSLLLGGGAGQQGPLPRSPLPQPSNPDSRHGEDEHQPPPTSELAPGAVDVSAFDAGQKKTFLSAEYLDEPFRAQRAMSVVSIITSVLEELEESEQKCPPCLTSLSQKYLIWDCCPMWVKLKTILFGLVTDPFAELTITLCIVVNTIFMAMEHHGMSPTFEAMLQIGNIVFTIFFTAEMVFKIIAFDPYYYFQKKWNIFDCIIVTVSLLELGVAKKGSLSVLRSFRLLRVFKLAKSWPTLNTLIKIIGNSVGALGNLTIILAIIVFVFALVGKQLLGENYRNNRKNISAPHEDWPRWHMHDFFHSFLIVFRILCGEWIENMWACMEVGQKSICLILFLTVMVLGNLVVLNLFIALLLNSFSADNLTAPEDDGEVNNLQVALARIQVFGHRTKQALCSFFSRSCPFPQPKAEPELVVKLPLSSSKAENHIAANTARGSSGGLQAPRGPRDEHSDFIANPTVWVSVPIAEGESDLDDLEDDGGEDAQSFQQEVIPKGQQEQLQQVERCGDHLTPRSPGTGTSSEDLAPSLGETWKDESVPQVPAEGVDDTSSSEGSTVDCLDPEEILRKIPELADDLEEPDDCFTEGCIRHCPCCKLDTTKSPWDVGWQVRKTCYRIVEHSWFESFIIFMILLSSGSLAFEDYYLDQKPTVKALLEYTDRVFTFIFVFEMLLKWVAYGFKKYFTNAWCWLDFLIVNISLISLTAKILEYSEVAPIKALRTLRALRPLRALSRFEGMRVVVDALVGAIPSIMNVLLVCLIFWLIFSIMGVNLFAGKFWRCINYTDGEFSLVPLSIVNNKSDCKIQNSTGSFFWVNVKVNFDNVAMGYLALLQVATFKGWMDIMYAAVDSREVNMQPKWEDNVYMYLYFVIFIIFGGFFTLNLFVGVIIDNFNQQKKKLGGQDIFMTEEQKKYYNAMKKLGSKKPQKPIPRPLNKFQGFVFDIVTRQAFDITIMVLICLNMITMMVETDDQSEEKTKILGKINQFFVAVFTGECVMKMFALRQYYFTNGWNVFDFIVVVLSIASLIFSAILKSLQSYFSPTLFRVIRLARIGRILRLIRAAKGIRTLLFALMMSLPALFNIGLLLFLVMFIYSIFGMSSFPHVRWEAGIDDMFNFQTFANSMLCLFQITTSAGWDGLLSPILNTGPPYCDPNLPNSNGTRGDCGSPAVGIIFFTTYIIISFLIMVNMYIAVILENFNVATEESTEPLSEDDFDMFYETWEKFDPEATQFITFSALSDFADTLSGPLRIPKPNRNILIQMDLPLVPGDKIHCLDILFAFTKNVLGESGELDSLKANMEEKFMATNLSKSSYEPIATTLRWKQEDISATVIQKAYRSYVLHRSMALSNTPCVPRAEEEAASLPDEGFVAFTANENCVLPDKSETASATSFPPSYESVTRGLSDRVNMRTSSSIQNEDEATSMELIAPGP
Kind of experiment: FRET-based membrane potential assay, Nav1.8. The following applies: HEK293 cells expressing recombinant human Nav1.8; veratridine + scorpion venom depolarization. The format is cell-based.

Another experiment has as its target T3, hERG channel (Kv11.1) (Homo sapiens, UniProt Q12809).
T3 construct: W. January (Wisconsin Alumni Research Foundation); host or cells: HEK-293
Kind of experiment: hERG QPatch screening protocol (hERG current block). The format is cell-based. The following applies: HEK-293 cells stably transfected with hERG; tail current; room temperature. On the procedure: hERG QPatch Screening Protocol
Solutions and Compound Plates:
The bath solution contained (in mM): 140 NaCl, 5 KCl, 1 MgCl2, 2 CaCl2, 5 glucose, 20 HEPES, pH=7.4. The internal solution contained (in mM): 125 K-aspartate, 20 KCl, 10 EGTA, 5 MgATP, 1 MgCl2, 5 HEPES, pH=7.3.
Compound plates were prepared with an acoustic liquid handler (Echo® 550, Labcyte), using 384-well source plates and 96-well destination plates. Compounds were delivered to the destination plates as 300 nL spots in half-log increments (1, 3, 10 and 30 mM), dissolved in dimethyl sulfoxide. Plates were solvated with bath solution (300 μL) to final concentrations (1, 3, 10 and 30 μM; 0.1% dimethyl sulfoxide) and added to the QPatch workstation.
Cells and Cell Preparation:
Human embryonic kidney (HEK-293) cells, stably transfected with the hERG channel, were obtained from Dr. C. W. January (Wisconsin Alumni Research Foundation). Cells were initially maintained at 37° C. (5% CO2 atmosphere) in MEM supplemented media. Cells were cryo-preserved in 10% dimethyl sulfoxide, 90% fetal bovine serum at 10 M cells/mL. For electrophysiological studies, cells were thawed, resuspended in media at 1.0-1.5 M cells/mL and placed on the QPatch workstation.
QPatch Electrophysiology Workstation and Experimental Protocol:
Currents were recorded using QPatch HT (Sophion), an automated planar patch-clamp system. The QPatch uses forty-eight amplifiers and a 48-chamber QPlate positioned directly on top of the headstage. To obtain high resistant seals, cells are added to each chamber and allowed to settle for 10 seconds. Negative pressure is then applied to promote cell delivery to the patch chip openings on the chamber bottom. After formation of GΩ seals, negative pressure ramps are applied to obtain intracellular access. Access resistance was initially optimized by additional pressure ramps to assure the intracellular access was adequate for voltage clamp experiments (targeted access resistance <10 MΩ). Whole-cell compensation and series resistance compensation were used at 60% (both predicted and corrected). Experiments using QPatch were conducted at room temperature.
A single application of each concentration was applied to cells. During a five-minute wash-in period, a four-second depolarizing pulse to +20 mV, followed by a five-second repolarizing pulse to −50 mV was applied once every 15 seconds from a holding potential of −80 mV. Cells were exposed to four ascending concentrations of drug in half-log intervals.
Evaluation of hERG Current Block:
hERG tail current was measured as the difference in amplitude between a […] and the end of a five-second test pulse to −50 mV, preceded by a four-second pulse to +20 mV. The hERG IC50 values for compounds were determined from tail current analysis. The IC50 was calculated with a logistic fitting routine using the following equation: y=[(A1−A2)/(1+(x/IC50))^p]A2, where A1=initial×value, A2=final×value and p=power.

T3 sequence (Q12809 whole entry): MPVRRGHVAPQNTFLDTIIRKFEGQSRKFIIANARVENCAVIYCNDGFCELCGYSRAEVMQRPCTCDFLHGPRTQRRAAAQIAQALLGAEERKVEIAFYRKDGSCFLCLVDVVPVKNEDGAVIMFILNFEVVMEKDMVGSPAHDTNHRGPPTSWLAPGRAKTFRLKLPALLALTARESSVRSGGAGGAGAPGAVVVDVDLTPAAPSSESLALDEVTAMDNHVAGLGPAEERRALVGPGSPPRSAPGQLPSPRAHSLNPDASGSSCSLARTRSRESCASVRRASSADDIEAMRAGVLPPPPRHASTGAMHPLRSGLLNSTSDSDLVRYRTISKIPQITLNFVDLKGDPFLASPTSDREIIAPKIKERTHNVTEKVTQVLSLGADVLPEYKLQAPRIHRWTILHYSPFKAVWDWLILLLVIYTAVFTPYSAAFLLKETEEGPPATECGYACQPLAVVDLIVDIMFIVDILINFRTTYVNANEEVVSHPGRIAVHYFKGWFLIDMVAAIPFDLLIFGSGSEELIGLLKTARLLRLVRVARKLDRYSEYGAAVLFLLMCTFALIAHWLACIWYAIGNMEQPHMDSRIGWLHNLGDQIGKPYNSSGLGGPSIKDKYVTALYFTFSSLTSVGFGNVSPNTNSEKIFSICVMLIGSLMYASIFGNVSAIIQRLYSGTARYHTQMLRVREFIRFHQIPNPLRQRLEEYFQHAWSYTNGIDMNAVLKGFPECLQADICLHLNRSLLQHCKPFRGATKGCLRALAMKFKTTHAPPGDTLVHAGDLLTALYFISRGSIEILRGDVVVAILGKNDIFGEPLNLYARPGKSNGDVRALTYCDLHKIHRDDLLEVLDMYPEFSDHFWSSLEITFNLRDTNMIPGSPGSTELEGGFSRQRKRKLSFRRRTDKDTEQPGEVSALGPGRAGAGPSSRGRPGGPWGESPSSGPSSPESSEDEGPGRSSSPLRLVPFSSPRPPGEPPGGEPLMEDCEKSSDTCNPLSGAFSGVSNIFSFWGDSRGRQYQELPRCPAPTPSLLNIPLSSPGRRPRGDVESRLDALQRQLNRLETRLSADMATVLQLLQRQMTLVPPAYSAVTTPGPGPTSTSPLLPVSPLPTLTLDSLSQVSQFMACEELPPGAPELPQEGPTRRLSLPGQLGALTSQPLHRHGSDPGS

On to `CC(C)(O)CC(=O)N1C[C@H]2CN(c3cccc4c3cnn4-c3ccccc3F)C(=O)[C@H]2C1` [Example 35, (3aS,6aR)-2-[1-(2-fluorophenyl)-1H-indazol-4-yl]-5-(3-hydroxy-3-methylbutanoyl)hexahydropyrrolo[3,4-c]pyrrol-1(2H)-one], for which the “OA MPE” value in experiment [1] (OA dose 30 mg/kg) is given as 99%. For the same compound, in experiment [2], the “SNL MPE” value came out at 40%.
For `C[C@H](O)CC(=O)N1C[C@H]2CN(c3cccc4c3cnn4-c3ccccc3F)C(=O)[C@H]2C1` [Example 34, (3aS,6aR)-2-[1-(2-fluorophenyl)-1H-indazol-4-yl]-5-[(3S)-3-hydroxybutanoyl]hexahydropyrrolo[3,4-c]pyrrol-1(2H)-one], the figures for the concentration for half-maximal inhibition (IC50) at recombinant human Nav1.7, at recombinant human Nav1.8 and on hERG channel (Kv11.1) were 9.91 µM, 8.36 µM and greater than 30 µM, respectively. For the same compound, in experiment [1] (OA dose 30 mg/kg), the “OA MPE” value was 85%. For the same compound, the “SNL MPE” value in experiment [2] was found to be 60%.
As to `O=C(CC1CCCO1)N1C[C@@H]2CN(c3cccc4c3cnn4-c3ccccc3F)C(=O)[C@H]2C1` (relative stereo) [Example 10, rel-(3aR,6aR)-2-[1-(2-fluorophenyl)-1H-indazol-4-yl]-5-(tetrahydrofuran-2-ylacetyl)hexahydropyrrolo[3,4-c]pyrrol-1(2H)-one], the results for the IC50 on recombinant human Nav1.7 and against hERG channel (Kv11.1) were 2.07 µM and greater than 30 µM, respectively. Besides, the “OA MPE” value in experiment [1] (OA dose 10 mg/kg) is 74%. In addition, the “SNL MPE” value in experiment [2] was 59%.
